Test results reported in patent US9345710B2, “Inhibitors of phosphatidic acid phosphohydrolase (PAP) enzymes for the treatment of cancers that depend on members of the ErbB/HER tyrosine kinase receptor family” (PONTIFICA UNIVERSIDAD CATOLICA DE CHILE, priority 2011, dated 2016).
pEC50: −log10 of the molar value. “And” between values parts separate entries of the source, which are not always exact repeats. Identical values can stand only once.

Columns and labels:
[1] = cited from earlier work
EGFR at the cell surface [2] = settings: highest dose 300 μM, 30 min; cited from earlier work
EGFR = experiment: Indirect immunofluorescence of EGFR distribution in HeLa cells; parameters: EGFR endocytosis (immunofluorescent pattern): dose or concentration left out as unconfirmed; settings: for EGFR endocytosis (immunofluorescent pattern): […] μM propranolol, […] μM desipramine; for EGFR staining pattern by indirect immunofluorescence: 30 min, 100 μM D- or L-propranolol, 20 μM desipramine
Procedure: HeLa cells grown on glass coverslips were washed three times with cold phosphate buffer saline (PBS) and incubated 2 h in serum free DMEM-HEPES media at 37° C., in order to accumulate EGFR on the cell surface. Then the cells were washed with PBS and fixed for 30 min at room temperature with 4% paraformaldehyde in PBS supplemented with 0.1 mM CaCl2 and 1 mM MgCl 2 (PBS-CM). After washing three times with PBS plus 0.2% gelatin (300 Bloom, Sigma Aldrich, PBS-CM-G), 5 minutes each time, cells were permeabilized with 0.2% Triton X-100 for 10 minutes at room temperature and incubated for 12 h at 4° C. with anti-EGFR monoclonal antibody (mAb) HB8506. After at least 6 washes in PBS-CM-G cells were incubated with secondary antibody anti-mouse IgG coupled to Alexa488 (dilution 1/1000) for 30 min at 37° C.

EGFR at the cell surface [3] = experiment: 125I-EGF radioligand binding assay on HeLa cells (EGFR at the cell surface); type: cell-based, human; settings: for decrease of EGFR at the cell surface (125I-EGF binding): 30 min, HeLa
Procedure: (§1) HeLa cells used for the radioligand binding assays and immunofluorescence to study EGFR endocytosis have been characterized previously in our laboratory (64, 122, 152). The cells were grown to approximately 80% confluence and maintained without serum for 4 h before testing. U87 human […] cells from the ATCC were grown and transfected with pcDNA3.1-EGFRvIII-myc using the lipofectamine method following the manufacturer's instructions (Invitrogen). 100,000 U87 cells were seeded in 15 mm plated and after 48 hours of seeding cells were transfected with 1 μg of plasmid pcDNA3-EGFRvIII-myc. After 48 hours post-transfection the selection medium (DMEM, 10% Fetal Bovine Serum (FBS) supplemented with antibiotics (100 IU/ml penicillin, […] streptomycin) and 0.8 mg/ml Geneticin was added (G418, Sigma). After 2 weeks in selection media, permanently transfected cells were obtained (U87-EGFRvIII).
The radioligand ^125I-human EGF was prepared by the chloramine T method as described (122, 152, 160) yielding specific activities of 50000-70000 cpm/ng. Binding assays were performed in Hanks solution with 20 mM HEPES and 0.2% bovine serum albumin (BSA) for 1 h at 4° C., as described (122). HeLa cells deprived of serum for 4 h were treated for 30 min with the indicated doses of various drugs and then incubated with 20 ng/ml ^125I-EGF at 4° C. in binding medium (MEM-Hank's, 25 mM HEPES, 0.2% BSA RIA grade), stirring for 1 h. The cells were lysed with 1 N NaOH for 2 h at room temperature and the counts per minute of each sample in triplicate was determined in a gamma counter, including a nonspecific binding point obtained by incubation with an excess (500 fold) of cold ligand, whose value was subtracted from each sample. The radioligand binding in saturating condition provides an estimate of the amount of EGFR on the cell surface.

U87 cells = experiment: Proliferation/viability of cultured tumor cells, U87; type: cell-based, human; settings: 10 μM D-Prop, 1 μM Des, alone or combined, 4 days
Procedure: as §1
(§2) Cells were seeded at a density of 10.000 cells per well in 24-well plates in triplicate and cultured in DMEM supplemented with 10% FBS and antibiotics (penicillin 100 U/ml and streptomycin 100 mg/ml). The medium with the drugs was changed each 24 hours. […] Viable cells were counted after 4 days of treatment in an automatic cell counter (Countess, Invitrogen) after incubation with vital tripan blue dye and are represented as % of live cells respect to untreated controls.

U87-EGFRvIII cells = experiment: Proliferation/viability of cultured tumor cells, U87-EGFRvIII; type: cell-based, human; settings: 10 μM D-Prop, 1 μM Des, alone or combined, 4 days
Procedure: as §1, §2

GBM1 cells = experiment: Proliferation/viability of primary glioblastoma cells GBM1; type: cell-based, human; settings: 10 μM D-Prop, 1 μM Des, alone or combined, 4 days
Procedure: (§3) Cells were seeded at a density of 10.000 cells per well in 24-well plates in triplicate and cultured in DMEM supplemented with 10% FBS and antibiotics (penicillin 100 U/ml and streptomycin 100 mg/ml). The medium with the drugs was changed each 24 hours. The respective controls received only culture medium. Viable cells were counted after 4 days of treatment in an automatic cell counter (Countess, Invitrogen) after incubation with vital tripan blue dye and are represented as % of live cells respect to untreated controls.

UCI 101 cells = experiment: Proliferation/viability, ovarian cancer cells UCI 101; type: cell-based, human; settings: 10 or 30 μM D-Prop, 1 μM Des, alone or combined, 4 days
Procedure: (§4) Viable cells counted in an automatic cell counter after incubation with vital tripan blue dye are represented as % of live cells respect to untreated controls.
as §3

B16F10 cells = experiment: Proliferation/viability, melanoma cells B16F10; type: cell-based, mice; settings: 10 or 30 μM D-Prop, 1 μM Des, alone or combined, 4 days
Procedure: as §4, §3

H1975 cells = experiment: Proliferation/viability, NSCLC cells H1975 (EGFR L858R/T790M); type: cell-based, human; settings: 10 or 30 μM D-Prop, 1 μM Des, alone or combined, 4 days
Procedure: as §4, §3

MDCK cells = experiment: Proliferation/viability, non-tumoral MDCK cells (selectivity control); type: cell-based, canine; settings: 10 or 30 μM D-Prop, 1 μM Des, alone or combined, 4 days
Procedure: as §4, §3

Row | Compound | half-time of concentration in circulation ([1]; human, in vivo) [h] | decrease of the levels of EGFR at the cell surface (125I-EGF binding) (EGFR at the cell surface [2]) [%] | EGFR endocytosis (immunofluorescent pattern) (EGFR) | decrease of EGFR at the cell surface (125I-EGF binding) (EGFR at the cell surface [3]; 250 μM) [%] | decrease of EGFR at the cell surface (125I-EGF binding) (EGFR at the cell surface [3]; […] μM) | proliferation of U87 cells (U87 cells) | proliferation of U87-EGFRvIII cells (U87-EGFRvIII cells) | proliferation of GBM1 cells (GBM1 cells) | viable cells (% of live cells respect to untreated controls), UCI 101 (UCI 101 cells) | viable cells (% of live cells respect to untreated controls), B16F10 (B16F10 cells) | viable cells (% of live cells respect to untreated controls), H1975 (H1975 cells) | viable cells (% of live cells respect to untreated controls), MDCK (MDCK cells) | concentration in the blood of patients ([1]; patients treated for arrhythmia, 12 h after the last dose (ref. 14)) [µM] | EGFR staining pattern by indirect immunofluorescence (EGFR) | pEC50 (EGFR at the cell surface [3]; HeLa cells, serum deprived 4 h, drug 30 min, read-out: EC50 for decrease in 125I-EGF binding (EGFR at the cell surface)) | reported effective blood concentration ([1]; human, in vivo) [µM]
1 | CC(C)NCC(O)COc1cccc2ccccc12 (racemic) [propranolol] | 4 to 6 | 80 | induce endocytosis of the EGFR | – | – | – | – | – | – | – | – | – | – | – | – | –
2 | CC(C)NC[C@@H](O)COc1cccc2ccccc12 [D-propranolol] | – | – | – | ~80 | about 50% | not sensitive | decrease their proliferation | decrease their proliferation | sensitive | sensitive | sensitive | not affected | ~10 | the pattern changed to an intracellular location, mainly at the perinuclear region | – | –
3 | CC(C)NC[C@H](O)COc1cccc2ccccc12 [L-propranolol] | – | – | – | ~80 | about 50% | – | – | – | – | – | – | – | – | the pattern changed to an intracellular location, mainly at the perinuclear region | – | –
4 | CNCCCN1c2ccccc2CCc2ccccc21 [desipramine] | – | – | induce endocytosis of the EGFR | – | – | not sensitive | decrease their proliferation | decrease their proliferation | sensitive | sensitive | sensitive | not affected | – | the pattern changed to an intracellular location, mainly at the perinuclear region | 4.60 to 4.70 and ~4.70 | 1
